This note sets out measurements from ChEMBL document CHEMBL4334471, “Discovery of 1,8-disubstituted-[1,2,3]triazolo[4,5-c]quinoline derivatives as a new class of Hippo signaling pathway inhibitors” (Bioorg Med Chem Lett, 2019).

Experiment [1] relates to Tyrosine-protein kinase ABL1 (Homo sapiens), P00519 [H396P]. Briefly: Inhibition of human ABL1 H396P mutant (27 to end residues) assessed as residual activity at 10 uM using EAIYAAPFAKKK as substrate incubated for 40 mins in presence of [gamma-33ATP] by scintillation counting based radiometry assay relative to control.
For experiment [2], the target named is Calcium/calmodulin-dependent protein kinase type II subunit alpha (Homo sapiens) (UniProt Q9UQM7). Briefly: Inhibition of recombinant full length human CaMK2alpha assessed as residual activity at 10 uM using KKLNRTLSFAEPG as substrate incubated for 40 mins in presence of [gamma-33ATP] by scintillation counting based radiometry assay relative to control.
Chain of Calcium/calmodulin-dependent protein kinase type II subunit alpha (Homo sapiens) (Q9UQM7 whole entry, the tested form may be a part): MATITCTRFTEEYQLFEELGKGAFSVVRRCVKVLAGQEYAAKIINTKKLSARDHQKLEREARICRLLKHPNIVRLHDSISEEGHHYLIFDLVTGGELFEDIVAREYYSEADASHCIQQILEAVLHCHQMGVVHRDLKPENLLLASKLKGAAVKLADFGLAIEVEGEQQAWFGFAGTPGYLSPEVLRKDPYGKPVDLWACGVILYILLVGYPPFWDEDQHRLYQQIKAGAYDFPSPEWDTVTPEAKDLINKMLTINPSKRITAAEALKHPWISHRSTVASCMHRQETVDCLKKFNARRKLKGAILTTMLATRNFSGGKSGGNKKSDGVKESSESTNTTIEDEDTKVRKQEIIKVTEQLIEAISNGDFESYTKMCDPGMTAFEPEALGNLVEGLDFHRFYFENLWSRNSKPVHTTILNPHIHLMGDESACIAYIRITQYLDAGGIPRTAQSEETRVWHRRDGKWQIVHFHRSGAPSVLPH
In experiment [3] the target is Calcium/calmodulin-dependent protein kinase type II subunit gamma (Homo sapiens) (UniProt Q13555). Briefly: Inhibition of recombinant human CaMK2gamma (1 to 330 residues) assessed as residual activity at 10 uM using […] incubated for 40 mins in presence of [gamma-33ATP] by scintillation counting based radiometry assay relative to control.
Chain of Calcium/calmodulin-dependent protein kinase type II subunit gamma (Homo sapiens) (Q13555 whole entry, the tested form may be a part): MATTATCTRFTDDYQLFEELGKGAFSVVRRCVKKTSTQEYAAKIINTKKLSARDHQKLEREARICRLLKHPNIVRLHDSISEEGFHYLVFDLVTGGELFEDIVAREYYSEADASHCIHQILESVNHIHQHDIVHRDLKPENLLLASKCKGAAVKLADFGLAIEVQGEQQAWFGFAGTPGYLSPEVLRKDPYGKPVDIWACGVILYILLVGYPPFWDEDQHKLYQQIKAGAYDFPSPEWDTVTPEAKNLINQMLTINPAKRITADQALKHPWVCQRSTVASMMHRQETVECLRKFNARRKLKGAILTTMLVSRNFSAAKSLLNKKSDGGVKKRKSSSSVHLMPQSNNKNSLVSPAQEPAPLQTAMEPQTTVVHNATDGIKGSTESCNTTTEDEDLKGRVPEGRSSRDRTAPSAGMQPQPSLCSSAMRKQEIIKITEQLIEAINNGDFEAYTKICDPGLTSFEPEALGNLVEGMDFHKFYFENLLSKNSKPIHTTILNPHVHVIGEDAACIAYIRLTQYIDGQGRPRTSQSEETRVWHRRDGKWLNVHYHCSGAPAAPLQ
Experiment [4] deals with CDK17/Cyclin-Y (Homo sapiens) (UniProt Q00537+Q8ND76). Briefly: Inhibition of recombinant full length human CDK17/cyclinY assessed as residual activity at 10 uM using PKSPKARKKL as substrate incubated for 40 mins in presence of [gamma-33ATP] by scintillation counting based radiometry assay relative to control. It counts as protein-complex assay.
Experiment [5] concerns the target Cyclin-dependent kinase-like 2 (Homo sapiens) (UniProt Q92772). Briefly: Inhibition of recombinant full length human CDKL2 assessed as residual activity at 10 uM in presence of [gamma-33ATP] by scintillation counting based radiometry assay relative to control.
In experiment [6] the target is Casein kinase 2 (Homo sapiens) (UniProt P67870+P68400+P19784+Q8NEV1). Briefly: Inhibition of recombinant human CK2 assessed as residual activity at 10 uM in presence of [gamma-33ATP] by scintillation counting based radiometry assay relative to control. Type of experiment: protein assay.
Experiment [7] has as its target Dual specificity tyrosine-phosphorylation-regulated kinase 3 (Homo sapiens) (UniProt O43781). Briefly: Inhibition of recombinant human DYRK3 assessed as residual activity at 10 uM using RRRFRPASPLRGPP as substrate at 40 mins in presence of [gamma-33ATP] by scintillation counting based radiometry assay relative to control.
Experiment [8] concerns Fibroblast growth factor receptor 2 (Homo sapiens), P21802 [N549H]. Briefly: Inhibition of recombinant human FGFR2 N549H mutant (456 to 765 residues) assessed as residual activity at 10 uM using KKKSPGEYVNIEF as substrate at 40 mins in presence of [gamma-33ATP] by scintillation counting based radiometry assay relative to control.
The target in experiment [9] is Rhodopsin kinase GRK1 (Homo sapiens) (UniProt Q15835). Briefly: Inhibition of recombinant full length human GRK1 assessed as residual activity at 10 uM using KKKKERLLDDRHD as substrate at 40 mins in presence of [gamma-33ATP] by scintillation counting based radiometry assay relative to control.
The target of experiment [10] is Insulin receptor-related protein (Homo sapiens) (UniProt P14616). Briefly: Inhibition of human IRR (943 to 1266 residues) assessed as residual activity at 10 uM using myelin basic protein as substrate after 40 mins by [gamma-33ATP] radiometric assay relative to control.
Chain of Insulin receptor-related protein (Homo sapiens) (P14616 27-742 limits assumed): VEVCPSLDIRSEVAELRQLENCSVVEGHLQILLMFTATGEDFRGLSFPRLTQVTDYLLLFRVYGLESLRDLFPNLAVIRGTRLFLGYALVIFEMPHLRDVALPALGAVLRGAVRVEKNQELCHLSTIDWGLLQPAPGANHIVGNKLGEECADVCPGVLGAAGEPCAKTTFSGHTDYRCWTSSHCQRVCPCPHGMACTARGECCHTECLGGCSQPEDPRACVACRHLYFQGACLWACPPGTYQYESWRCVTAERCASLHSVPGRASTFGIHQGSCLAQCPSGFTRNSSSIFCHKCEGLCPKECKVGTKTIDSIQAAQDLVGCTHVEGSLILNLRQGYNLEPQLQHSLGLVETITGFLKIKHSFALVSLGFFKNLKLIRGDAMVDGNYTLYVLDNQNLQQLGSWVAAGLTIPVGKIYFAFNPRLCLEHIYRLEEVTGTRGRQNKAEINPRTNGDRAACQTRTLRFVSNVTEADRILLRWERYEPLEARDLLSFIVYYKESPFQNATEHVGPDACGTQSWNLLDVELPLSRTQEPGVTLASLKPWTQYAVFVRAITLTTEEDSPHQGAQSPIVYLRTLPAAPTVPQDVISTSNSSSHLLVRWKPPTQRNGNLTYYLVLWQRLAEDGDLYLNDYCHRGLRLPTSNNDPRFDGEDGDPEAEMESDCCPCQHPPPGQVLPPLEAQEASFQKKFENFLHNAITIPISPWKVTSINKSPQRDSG
Chain of Insulin receptor-related protein (Homo sapiens) (P14616 747-1297 limits assumed): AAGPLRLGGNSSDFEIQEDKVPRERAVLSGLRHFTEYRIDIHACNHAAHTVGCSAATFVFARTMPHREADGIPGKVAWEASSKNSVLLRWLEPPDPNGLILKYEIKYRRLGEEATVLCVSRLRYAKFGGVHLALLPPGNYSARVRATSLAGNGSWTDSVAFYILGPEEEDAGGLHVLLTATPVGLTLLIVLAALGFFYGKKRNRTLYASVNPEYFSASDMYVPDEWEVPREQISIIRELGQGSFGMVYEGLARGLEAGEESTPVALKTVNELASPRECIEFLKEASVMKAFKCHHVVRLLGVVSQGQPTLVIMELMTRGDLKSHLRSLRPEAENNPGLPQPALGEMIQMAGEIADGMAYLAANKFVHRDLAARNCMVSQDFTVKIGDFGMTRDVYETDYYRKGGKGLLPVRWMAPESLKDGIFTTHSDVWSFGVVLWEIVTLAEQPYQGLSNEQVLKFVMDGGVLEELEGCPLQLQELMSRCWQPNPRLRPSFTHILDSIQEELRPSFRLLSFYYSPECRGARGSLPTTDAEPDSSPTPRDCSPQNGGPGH
Experiment [11] is filed under the species Homo sapiens. Briefly: Inhibition of human MAPK2 assessed as residual activity at 10 uM relative to control.
In experiment [12] the target is MAP kinase-activated protein kinase 3 (Homo sapiens) (UniProt Q16644). Briefly: Inhibition of recombinant human MAPKAPK3 (2 to end residues) assessed as residual activity at 10 uM using KKLNRTLSVA as substrate incubated for 40 mins in presence of [gamma-33ATP by scintillation counting based radiometry assay relative to control.
Experiment [13] has as its target MAP/microtubule affinity-regulating kinase 3 (Homo sapiens) (UniProt P27448). Briefly: Inhibition of recombinant full length human MARK3 assessed as residual activity at 10 uM using KKKVSRSGLYRSPSMPENLNRPR as substrate incubated for 40 mins in presence of [gamma-33ATP by scintillation counting based radiometry assay relative to control.
The target of experiment [14] is Mitogen-activated protein kinase kinase kinase 3 (Homo sapiens) (UniProt Q99759). Briefly: Inhibition of recombinant full length human MEKK3 assessed as residual activity at 10 uM using myelin basic protein as substrate incubated for 120 mins in presence of [gamma-33ATP by scintillation counting based radiometry assay relative to control.
The target in experiment [15] is MAPK/MAK/MRK overlapping kinase (Homo sapiens) (UniProt Q9UQ07). Briefly: Inhibition of recombinant human MOK (1 to 343 residues) assessed as residual activity at 10 uM using RSRSRSRSRSRSR as substrate incubated for 40 mins in presence of [gamma-33ATP by scintillation counting based radiometry assay relative to control.
Chain of MAPK/MAK/MRK overlapping kinase (Homo sapiens) (Q9UQ07 whole entry, the tested form may be a part): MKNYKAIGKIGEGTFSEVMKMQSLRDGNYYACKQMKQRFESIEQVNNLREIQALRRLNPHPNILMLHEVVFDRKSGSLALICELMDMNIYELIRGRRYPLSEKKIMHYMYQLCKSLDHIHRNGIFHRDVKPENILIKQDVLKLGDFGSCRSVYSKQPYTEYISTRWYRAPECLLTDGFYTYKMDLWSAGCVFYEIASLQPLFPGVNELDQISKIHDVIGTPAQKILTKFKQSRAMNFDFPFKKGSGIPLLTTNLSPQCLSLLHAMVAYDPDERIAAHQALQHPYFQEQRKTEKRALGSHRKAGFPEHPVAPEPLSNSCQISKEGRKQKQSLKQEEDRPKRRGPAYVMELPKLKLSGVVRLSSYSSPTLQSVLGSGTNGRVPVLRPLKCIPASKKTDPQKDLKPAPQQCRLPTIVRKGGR
Experiment [16] concerns the target Serine/threonine-protein kinase MRCK beta (Homo sapiens) (UniProt Q9Y5S2). Briefly: Inhibition of recombinant human MRCKbeta (1 to 473 residues) assessed as residual activity at 10 uM using KKRNRTLTV as substrate incubated for 40 mins in presence of [gamma-33ATP by scintillation counting based radiometry assay relative to control.
Experiment [17] addresses Serine/threonine-protein kinase Nek11 (Homo sapiens) (UniProt Q8NG66). Briefly: Inhibition of recombinant full length human NEK11 assessed as residual activity at 10 uM using myelin basic protein as substrate measured after 40 mins in presence of [gamma33P]ATP by scintillation counting based radiometry assay relative to control.
Experiment [18] addresses NUAK family SNF1-like kinase 2 (Homo sapiens) (UniProt Q9H093). Briefly: Inhibition of recombinant human full length NUAK2 assessed as residual activity at 10 uM using KKKVSRSGLYRSPSMPENLNRPR as substrate measured after 40 mins in presence of [gamma33P]ATP by scintillation counting based radiometry assay relative to control.
The target of experiment [19] is Eukaryotic translation initiation factor 2-alpha kinase 3 (Homo sapiens) (UniProt Q9NZJ5). Briefly: Inhibition of human PEK (536 to end residues) assessed as residual activity at 10 uM using RSRSRSRSRSRSRSR as substrate measured after 40 mins in presence of [gamma33P]ATP by scintillation counting based radiometry assay relative to control.
Experiment [20] addresses Tyrosine-protein kinase Yes (Homo sapiens) (UniProt P07947). Briefly: Inhibition of recombinant full-length human Yes assessed as residual activity at 10 uM using poly(Glu, Tyr) 4:1 as substrate incubated for 40 mins in presence of [gamma33P]ATP by scintillation counting based radiometry assay relative to control.
Experiment [21] has as its target Tyrosine-protein kinase ZAP-70 (Homo sapiens) (UniProt P43403). Briefly: Inhibition of recombinant full length human ZAP70 assessed as residual activity at 10 uM using poly(Glu, Tyr) 4:1 as substrate incubated for 40 mins in presence of [gamma33P]ATP by scintillation counting based radiometry assay relative to control.
Experiment [22] is filed under the species Homo sapiens. Briefly: Inhibition of recombinant full-length human ATR/ATRIP M211T mutant assessed as residual activity at 10 uM using GST-cMyc-p53 as substrate measured after 40 mins by fluorescence assay relative to control.

Chain of Serine/threonine-protein kinase MRCK beta (Homo sapiens) (Q9Y5S2 whole entry, the tested form may be a part): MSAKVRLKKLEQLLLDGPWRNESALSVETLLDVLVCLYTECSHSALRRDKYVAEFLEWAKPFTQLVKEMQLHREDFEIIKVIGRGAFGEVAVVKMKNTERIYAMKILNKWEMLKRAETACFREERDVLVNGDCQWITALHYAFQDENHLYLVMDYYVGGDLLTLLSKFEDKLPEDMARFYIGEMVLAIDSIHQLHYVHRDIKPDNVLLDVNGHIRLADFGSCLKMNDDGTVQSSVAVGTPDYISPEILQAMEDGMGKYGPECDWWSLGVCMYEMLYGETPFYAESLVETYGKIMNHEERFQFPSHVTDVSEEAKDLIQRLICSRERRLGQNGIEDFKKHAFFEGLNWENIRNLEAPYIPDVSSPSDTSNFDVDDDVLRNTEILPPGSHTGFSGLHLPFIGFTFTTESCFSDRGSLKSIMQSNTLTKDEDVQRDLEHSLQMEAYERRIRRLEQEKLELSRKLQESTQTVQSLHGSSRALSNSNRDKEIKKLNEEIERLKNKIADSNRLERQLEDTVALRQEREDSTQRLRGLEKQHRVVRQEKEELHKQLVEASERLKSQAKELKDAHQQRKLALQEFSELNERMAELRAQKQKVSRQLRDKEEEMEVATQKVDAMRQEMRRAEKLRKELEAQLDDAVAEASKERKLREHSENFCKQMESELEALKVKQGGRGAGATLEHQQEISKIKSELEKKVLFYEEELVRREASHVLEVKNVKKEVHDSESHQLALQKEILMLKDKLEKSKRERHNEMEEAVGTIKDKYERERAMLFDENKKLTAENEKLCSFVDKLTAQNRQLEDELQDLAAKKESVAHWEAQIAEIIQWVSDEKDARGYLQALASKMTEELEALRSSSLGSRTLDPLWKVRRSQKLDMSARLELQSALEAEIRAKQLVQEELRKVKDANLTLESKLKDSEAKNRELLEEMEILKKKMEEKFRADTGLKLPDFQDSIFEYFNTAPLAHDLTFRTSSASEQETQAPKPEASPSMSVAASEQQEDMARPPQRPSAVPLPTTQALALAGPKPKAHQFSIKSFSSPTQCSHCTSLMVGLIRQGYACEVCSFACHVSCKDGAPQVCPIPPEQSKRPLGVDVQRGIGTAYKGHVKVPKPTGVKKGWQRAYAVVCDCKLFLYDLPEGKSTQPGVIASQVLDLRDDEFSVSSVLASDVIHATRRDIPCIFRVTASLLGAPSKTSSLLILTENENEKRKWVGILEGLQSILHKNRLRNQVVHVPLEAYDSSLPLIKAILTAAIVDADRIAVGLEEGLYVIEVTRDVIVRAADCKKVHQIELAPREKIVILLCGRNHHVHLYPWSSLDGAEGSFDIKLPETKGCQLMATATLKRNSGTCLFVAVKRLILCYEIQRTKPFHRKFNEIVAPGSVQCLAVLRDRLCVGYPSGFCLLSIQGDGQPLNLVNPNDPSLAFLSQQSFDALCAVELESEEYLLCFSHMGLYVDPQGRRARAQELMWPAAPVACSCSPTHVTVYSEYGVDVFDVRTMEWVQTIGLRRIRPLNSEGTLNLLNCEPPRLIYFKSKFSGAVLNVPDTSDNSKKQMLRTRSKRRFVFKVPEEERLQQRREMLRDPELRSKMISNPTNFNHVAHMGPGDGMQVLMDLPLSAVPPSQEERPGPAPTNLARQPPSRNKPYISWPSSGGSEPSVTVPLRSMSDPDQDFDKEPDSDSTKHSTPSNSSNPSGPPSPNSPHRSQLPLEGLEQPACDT
Chain of Dual specificity tyrosine-phosphorylation-regulated kinase 3 (Homo sapiens) (O43781 whole entry, the tested form may be a part): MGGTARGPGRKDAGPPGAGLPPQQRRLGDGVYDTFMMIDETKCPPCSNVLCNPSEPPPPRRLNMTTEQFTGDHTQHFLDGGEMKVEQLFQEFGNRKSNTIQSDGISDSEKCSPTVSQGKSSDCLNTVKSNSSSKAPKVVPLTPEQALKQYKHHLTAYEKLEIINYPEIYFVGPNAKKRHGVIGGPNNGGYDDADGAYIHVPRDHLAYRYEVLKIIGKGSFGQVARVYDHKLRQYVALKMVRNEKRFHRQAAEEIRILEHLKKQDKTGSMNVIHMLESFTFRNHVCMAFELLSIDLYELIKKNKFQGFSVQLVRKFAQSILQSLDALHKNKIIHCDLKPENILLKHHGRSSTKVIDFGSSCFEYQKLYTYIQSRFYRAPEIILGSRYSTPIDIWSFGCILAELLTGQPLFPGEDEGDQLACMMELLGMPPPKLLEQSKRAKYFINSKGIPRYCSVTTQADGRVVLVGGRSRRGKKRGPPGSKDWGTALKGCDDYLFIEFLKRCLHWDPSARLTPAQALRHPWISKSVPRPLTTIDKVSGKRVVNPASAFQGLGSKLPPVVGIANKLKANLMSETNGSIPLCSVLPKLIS

Turning to `C[C@@H](c1ccccc1)n1nnc2cnc3ccc(-c4cnc5[nH]ccc5c4)cc3c21`, the Activity was -1% in experiment [1]; 50% in [2]; 72% in experiment [3]; 85% in experiment [4]; 56% in [5]; 82% in experiment [6]. Moreover, the Activity in experiment [7] is 79%; in experiment [8], 27%; in experiment [9], 87%; in experiment [10], 86%; in the experiment listed under Homo sapiens [11] it was 93%; in [12] it was 76%. The Activity came out at 91% in experiment [13]; 92% in experiment [14]; 99% in [15]; 105% in [16]; 103% in experiment [17]; 105% in experiment [18]. Besides, the Activity came out at 94% in experiment [19], 3% in experiment [20], 150% in experiment [21] and 40% in the experiment listed under Homo sapiens [22].
